Laboratory results taken from patent EP0944596B1, “1-ACRYLOYLINDOLINE DERIVATIVES AND THEIR USE AS PRODRUGS OF ANTICANCER AGENTS” (Auckland Uniservices Limited, priority 1996, dated 1998).

How the values were obtained:
[1] = background statement, literature; cited from earlier work
[2] = tested on: UV4 cells; assay: Growth inhibition (cytotoxicity) of UV4 cells, 18 h drug exposure, methylene blue staining; assay type: cell-based; conditions: Cricetulus griseus
Procedure: (§1) To evaluate the activity of a compound UV4 cells were maintained in exponential phase growth (doubling times 14 and 15 h respectively) using Alpha MEM containing fetal calf serum (10% v/v) without antibiotics, and were subcultured twice weekly by trypsinization. Bulk cultures were prepared for experiments by seeding cells in spinner flasks at 10^4 cells/mL in the above medium with addition of penicillin (100 IU/mL) and streptomycin (100 µg/mL). Cultures were initiated in 96-well microtiter trays to give 200 (AA8) or 300 (UV4) cells in 0.05 mL per well. After growth in a CO2 incubator for 24 h, drugs were added in culture medium, using serial two-fold dilutions to provide duplicate cultures at five different concentrations for each of eight drugs (plus eight controls) per tray. After 18 h drugs were removed by washing cultures three times with fresh medium, and the trays were incubated for a further 78 h. Cell density was then determined by staining with metbylene blue as described [Finlay, G.J.; Baguley, B.C.; Wilson, W.R. Anal. Biochem., 1984, 139: 272-277]. The IC50 was calculated as the drug concentration providing 50% inhibition of growth relative to the controls.
(§2) To evaluate the activation of the compound by E. coli nitroreductase 2 (NR2) the experiment was repeated but in addition purified E. coli nitroreductase enzyme (1 µg/mL) and NADH (1 mM, as cofactor) was added during the entire time of the incubation. As a comparison the experiment was also repeated but with the addition only of NADH and not NR2.
(§3) Where multiple determinations were carried out the IC50 is given as an average ± SEM. Where one determination only was carried out a single IC50 value is given.

[3] = tested on: UV4 cells; assay: Activation by E. coli nitroreductase 2 (NR2): growth inhibition of UV4 cells with purified enzyme and NADH added; assay type: cell-based; conditions: for IC50: Cricetulus griseus, UV4 cells, purified E. coli nitroreductase enzyme (1 µg/mL) and NADH (1 mM) during the entire incubation, read-out: IC50 (nM) drug + NADH + NR2; for Ratio*: IC50 drug alone/IC50 drug + NADH + NR2, intra-experiment ratios, 1080 min
Procedure: as §1, §2, §3

[4] = 18 h exposure, then 78 h further incubation, average ± SEM where multiple determinations, read-out: IC50 (nM) drug alone
[5] = NADH (1 mM) added, no NR2, 18 h exposure, read-out: IC50 (nM) drug + NADH

SMILES | IC50 [1] | IC50 [2, 4] | IC50 [2, 5] | IC50 [3] | Ratio* [3]
COc1c(O)c2c(c3cc(C(=O)N4CCc5c4c(O)c(OC)c4[nH]c(C(=O)N6CC7CC78C6=CC(=O)c6[nH]cc(C)c68)cc54)[nH]c13)CCN2C(N)=O (stereo not drawn) [CC-1065] | low pM range | – | – | – | –
CCCC(=O)Nc1cc(/C=C/C(=O)N2CC(CCl)c3ccc([N+](=O)[O-])cc32)n(C)c1 (stereo not drawn) [Compound 7, 1-[(E)-3-(4-butyramido-1-methyl-2-pyrrole)acryloyl]-3-(chloromethyl)-6-nitroindoline] | – | 2940 ± 320 nM | 1080 ± 340 nM | 43 ± 4 nM | 70±13
CCCC(=O)Nc1cc(/C=C/C(=O)N2CC(CCl)c3ccc(N)cc32)n(C)c1 (stereo not drawn) [Compound 8, 6-amino-1-[(E)-3-(4-butyramido-1-methyl-2-pyrrole)acryloyl]-3-(chloromethyl)indoline] | – | 38 nM | 24 nM | 35 nM | 1.1
Cn1cccc1C(=O)Nc1cccc(/C=C/C(=O)N2CC(CCl)c3ccc([N+](=O)[O-])cc32)c1 (stereo not drawn) [Compound 12, 1-[(E)-3-(1-methylpyrrole-2-carboxamido)cinnamoyl]-3-chloromethyl-6-nitroindoline] | – | ~5000 nM | – | – | ca. 30
CC(=O)Nc1cccc(/C=C/C(=O)N2CC(CCl)c3ccc([N+](=O)[O-])cc32)c1 (stereo not drawn) [Compound 13, 1-[(E)-3-(acetylamino)cinnamoyl]-3-chloromethyl-6-nitroindoline] | – | 335 nM | 339 nM | 74 ± 23 nM | 3.5
